Laboratory results published in the NIST ThermoML archive (doi:10.1021/je900333c).

Assay: relative permittivity at zero frequency (dimensionless); mn = molality of the nth substance listed, in mol/kg
Details: 101 kPa, Liquid, dielectric constant meter

NCC(=O)O [2-aminoacetic acid] + O
relative permittivity at zero frequency
Details | 278.15 K | 283.15 K | 288.15 K | 293.15 K | 298.15 K | 303.15 K | 308.15 K | 313.15 K
m1 = 0.1 | 88.4 | 86.4 | 84.5 | 82.6 | 80.7 | 78.8 | 76.9 | 75
m1 = 0.15 | 89.5 | 87.5 | 85.6 | 83.6 | 81.7 | 79.7 | 77.8 | 75.8
m1 = 0.2 | 90.6 | 88.6 | 86.6 | 84.6 | 82.6 | 80.6 | 78.5 | 76.4
m1 = 0.25 | 91.6 | 89.6 | 87.6 | 85.6 | 83.5 | 81.4 | 79.2 | 77
m1 = 0.3 | 92.8 | 90.7 | 88.7 | 86.5 | 84.3 | 82.1 | 79.7 | 77.2
